Source: PubChem BioAssay (NCI)
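Compound exposure: 48 hours, 5 concentrations, 96-well plates. TGI denotes the concentration required for complete inhibition of growth.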

Experiments:
Test in all cases: DTP human tumour cell line panel, 48 h
LOX IMVI melanoma = system: LOX IMVI melanoma
SK-OV-3 ovarian = system: SK-OV-3 ovarian
HCT-15 colon = system: HCT-15 colon
HOP-62 NSCLC = system: HOP-62 NSCLC
SF-295 CNS = system: SF-295 CNS
OVCAR-3 ovarian = system: OVCAR-3 ovarian
CCRF-CEM leukemia = system: CCRF-CEM leukemia
MDA-N = system: MDA-N
M14 melanoma = system: M14 melanoma
UO-31 renal = system: UO-31 renal
EKVX NSCLC = system: EKVX NSCLC
A498 renal = system: A498 renal
MDA-MB-231 breast = system: MDA-MB-231 breast

SMILES	TGI (LOX IMVI melanoma) [µM]	TGI (SK-OV-3 ovarian) [µM]	TGI (HCT-15 colon) [µM]	TGI (HOP-62 NSCLC) [µM]	TGI (SF-295 CNS) [µM]	TGI (OVCAR-3 ovarian) [µM]	TGI (CCRF-CEM leukemia) [µM]	TGI (MDA-N) [µM]	TGI (M14 melanoma) [µM]	TGI (UO-31 renal) [µM]	TGI (EKVX NSCLC) [µM]	TGI (A498 renal) [µM]	TGI (MDA-MB-231 breast) [µM]
C=C1C(=O)OC2/C=C(\C)CC/C=C(/C)CC(OC(=O)/C(=C/CO)CO)C12 (configuration not stated)	81.5	> 100	37.7	> 100	> 100	> 100	> 100	47.2	39	33.8	–	–	–
Cn1c(-c2ccccc2)cc(-c2ccc3c(c2)OCO3)c1-c1cccs1	> 100	> 100	> 100	> 100	> 100	> 100	> 100	> 100	> 100	> 100	> 100	> 100	–
NS(=O)(=O)c1ccc(NNC(=O)c2cccc3c(=O)c4ccccc4[nH]c23)cc1	89	> 100	> 100	> 100	> 100	> 100	> 100	> 100	> 100	> 100	> 100	–	> 100
O=C(ON=c1c2ccccc2ccc2ccccc12)c1cc([N+](=O)[O-])cc([N+](=O)[O-])c1	> 100	> 100	> 100	> 100	> 100	> 100	94	> 100	> 100	> 100	> 100	–	> 100
CC1=NN(c2nc(N)nc(CS(C)(=O)=O)n2)C(C)(C)C1	> 100	> 100	> 100	> 100	> 100	–	> 100	–	> 100	> 100	> 100	> 100	> 100
Cc1nn2c(N)cc(=O)nc2nc1/C=C/c1ccc(N(C)C)cc1	22	> 100	> 27.9	> 100	> 100	–	2.41	> 100	> 100	> 100	> 100	–	> 100
Cc1cccc2c1Oc1cc(Cl)ccc1C2NC(=O)CCN1CCCCC1 (configuration not stated)	30.2	–	32.7	28.3	33.1	–	32.4	33.1	34	29.2	55.5	–	39
Clc1cc2nc(C3CCCO3)[nH]c2cc1Cl (configuration not stated)	> 100	> 100	> 100	> 100	> 100	> 100	> 100	58	> 100	53.9	> 100	–	> 100
O=C1C(NS(=O)(=O)c2ccccc2)=C(n2cnc3ccccc32)C(=O)c2ccccc21	> 100	> 100	> 100	> 100	> 100	> 100	> 100	> 100	> 100	> 100	> 100	–	> 100
CCCS(=O)(=O)O	> 100	> 100	> 100	> 100	> 100	> 100	> 100	–	> 100	> 100	> 100	> 100	> 100
c1ccc(Cc2cccc3cc(-c4ccc(-c5ccccc5)cc4)[nH]c23)cc1	> 100	> 100	> 100	> 100	> 100	> 100	> 100	> 100	> 100	> 100	> 100	–	> 100
O=C(O)CC(NC(=O)C(F)(F)F)C(=O)NC1Cc2ccccc2OC1=O (configuration not stated)	–	> 100	> 100	> 100	> 100	> 100	–	> 100	> 100	> 100	> 100	–	–
CC(C)OP(=O)(OC(C)C)C(C(F)(F)F)C(F)(F)F	> 100	> 100	> 100	> 100	> 100	> 100	> 100	> 100	> 100	> 100	> 100	–	–
O=C1CCc2c3c(c4c([nH]c5ccccc54)c2CC1)C(=O)NC3=O	21	–	> 100	> 100	33.5	> 100	> 100	–	44.6	14.7	> 100	13.5	> 100
NNC(N)=Nc1cccc2ccccc12	–	> 100	> 100	> 100	> 100	–	> 100	–	> 100	> 100	> 100	> 100	> 100
CN(c1c(Cl)cccc1Cl)S(=O)(=O)c1ccccc1[N+](=O)[O-]	> 100	> 100	> 100	> 100	> 100	> 100	–	> 100	> 100	> 100	> 100	–	–
